Residues, ends and D or L forms follow the SMILES beside them. *: point of attachment. Cbz = O=C(OCc1ccccc1)*
Key:
Format in all cases: cell-based
[1] = target: T1, 20S proteasome β1 subunit (caspase-like activity) (Rattus norvegicus, UniProt P28073); test: caspase-like activity (Z-LLE-MCA cleavage) in lysates of INS-1E cells treated with […] MG-132; details: read-out: % inhibition at 150 nM
T1 construct: gene Psmb6; with other subunits of the 20S/26S proteasome
T1 sequence (P28073 34-238): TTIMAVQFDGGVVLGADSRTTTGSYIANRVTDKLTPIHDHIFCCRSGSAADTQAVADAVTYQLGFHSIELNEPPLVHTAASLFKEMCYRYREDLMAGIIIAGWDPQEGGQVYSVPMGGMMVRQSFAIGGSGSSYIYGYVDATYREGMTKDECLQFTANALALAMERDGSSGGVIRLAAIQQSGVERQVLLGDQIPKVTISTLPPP

[2] = target: T2, 20S proteasome β5 subunit (chymotrypsin-like activity) (Rattus norvegicus, UniProt P28075); test: chymotrypsin-like activity (Suc-LLVY-MCA cleavage) in lysates of MG-132-treated INS-1E cells, dose-response
T2 construct: gene Psmb5; with other subunits of the 20S/26S proteasome
T2 sequence (P28075 60-263): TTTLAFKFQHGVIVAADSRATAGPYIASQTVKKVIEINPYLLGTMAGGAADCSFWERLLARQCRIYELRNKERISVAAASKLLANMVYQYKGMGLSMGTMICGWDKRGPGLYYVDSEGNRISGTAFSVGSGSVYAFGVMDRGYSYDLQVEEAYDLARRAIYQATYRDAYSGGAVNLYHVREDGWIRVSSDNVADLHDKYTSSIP

[3] = target: T3, 20S proteasome β2 subunit (trypsin-like activity) (Rattus norvegicus, UniProt Q9JHW0); test: trypsin-like activity (Z-ARR-MCA cleavage) in lysates of INS-1E cells treated with […] MG-132; details: read-out: % inhibition at 150 nM
T3 construct: gene Psmb7; with other subunits of the 20S/26S proteasome
T3 sequence (Q9JHW0 44-277): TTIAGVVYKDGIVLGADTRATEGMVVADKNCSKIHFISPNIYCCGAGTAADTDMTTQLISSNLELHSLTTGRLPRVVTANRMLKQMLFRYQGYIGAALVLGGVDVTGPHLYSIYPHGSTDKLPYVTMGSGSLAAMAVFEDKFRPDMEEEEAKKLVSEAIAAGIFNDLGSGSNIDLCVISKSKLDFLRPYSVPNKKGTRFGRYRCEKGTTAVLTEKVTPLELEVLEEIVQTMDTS

Work on `CC(C)C[C@@H](C=O)NC(=O)[C@H](CC(C)C)NC(=O)[C@H](CC(C)C)NC(=O)OCc1ccccc1` [MG-132] (Cbz-Leu-Leu-Leu-aldehyde) yielded an inhibition at 0.15 µM [1] of 80%, a Ki [2] of 50 nM and an inhibition at 0.15 µM [3] of 50%.

From article PMC3958412, “Proteasome Dysfunction Mediates High Glucose-Induced Apoptosis in Rodent Beta Cells and Human Islets” (PLoS ONE, 2014)
